Where two headings read alike, the source gives them in different places.

In this assay the target is T1, SFRP-1 (Homo sapiens, UniProt Q8N474).
T1 sequence (Q8N474 32-314): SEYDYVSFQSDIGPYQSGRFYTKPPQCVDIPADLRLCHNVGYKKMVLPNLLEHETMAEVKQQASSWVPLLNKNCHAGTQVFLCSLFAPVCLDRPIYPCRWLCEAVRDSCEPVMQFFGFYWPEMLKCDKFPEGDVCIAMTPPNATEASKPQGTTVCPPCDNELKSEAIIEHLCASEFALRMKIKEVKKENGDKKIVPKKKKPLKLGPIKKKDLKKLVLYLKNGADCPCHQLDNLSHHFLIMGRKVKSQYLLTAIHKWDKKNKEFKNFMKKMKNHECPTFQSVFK
Description: Cell-based assay for in vitro measurement of SFRP-1/SARP2 antagonist activity (U2OS cells co-transfected with 16x TCF-tk-Luciferase reporter, Wnt and hSFRP-1).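 Note: U2OS cells co-transfected with a TCF-tk luciferase reporter, a Wnt vector, hSFRP-1 or empty vector and CMV-βgal, luciferase luminescence read in cell lysates alongside βgal activity.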 Conditions: U2OS. A general note: Reporter assays use an easily measured gene product as a stand-in for the process of interest.

Setting [1] is: read-out: Fold Induction with SFRP-1, Conc 30 μM, with SFRP-1, fold induction over SFRP-1 control, single dose.
Where [2] appears, read: read-out: Fold Induction without SFRP-1, Conc 30 μM, without SFRP-1, single dose.
Where [3] appears, read: read-out: Fold Induction with SFRP-1, Conc 15 μM, with SFRP-1, fold induction over SFRP-1 control, single dose.
[4] abbreviates: read-out: Fold Induction without SFRP-1, Conc 15 μM, without SFRP-1, single dose.

For the molecule `CN(C)CCNS(=O)(=O)c1cccc(S(=O)(=O)c2ccccc2)c1` [Example 194, N-[2-(dimethylamino)ethyl]-3-(phenylsulfonyl)benzenesulfonamide], the fold induction at 30 µM was found to be 1.3 under setting [1] and 1.2 under setting [2].
As for `COCCCNS(=O)(=O)c1cccc(S(=O)(=O)c2ccccc2)c1` [Example 195, N-(3-methoxypropyl)-3-(phenylsulfonyl)benzenesulfonamide], the fold induction at 30 µM runs as follows: under setting [1], 1.2; under setting [2], 0.9.
As to `CN(C)CCCNS(=O)(=O)c1cccc(S(=O)(=O)c2ccccc2)c1` [Example 196, N-[3-(dimethylamino)propyl]-3-(phenylsulfonyl)benzenesulfonamide], the fold induction at 30 µM worked out at 1.4 under setting [1] and 1.3 under setting [2].
As to `COCCNS(=O)(=O)c1cccc(S(=O)(=O)c2ccccc2)c1` [Example 197, N-(2-methoxyethyl)-3-(phenylsulfonyl)benzenesulfonamide], the fold induction at 30 µM was 1.1 under setting [1] and 1.2 under setting [2].
For `CCN(CC)CCCNS(=O)(=O)c1cccc(S(=O)(=O)c2ccccc2)c1` [Example 198, N-[3-(diethylamino)propyl]-3-(phenylsulfonyl)benzenesulfonamide], the fold induction at 30 µM under setting [1] amounted to 1.1 and the fold induction at 30 µM under setting [2] came to 1.3.
`O=S(=O)(NCCCn1ccnc1)c1cccc(S(=O)(=O)c2ccccc2)c1` [Example 199, N-[3-(1H-imidazol-1-yl)propyl]-3-(phenylsulfonyl)benzenesulfonamide]: the fold induction at 30 µM by setting is: under setting [1], 1.1; under setting [2], 1.
With `O=S(=O)(NCCCN1CCCC1)c1cccc(S(=O)(=O)c2ccccc2)c1` [Example 200, 3-(phenylsulfonyl)-N-(3-pyrrolidin-1-ylpropyl)benzenesulfonamide], the fold induction at 30 µM by setting is: under setting [1], 1.4; under setting [2], 1.8.
Consider `CN1CCN(CCCNS(=O)(=O)c2cccc(S(=O)(=O)c3ccccc3)c2)CC1` [Example 201, N-[3-(4-methylpiperazin-1-yl)propyl]-3-(phenylsulfonyl)benzenesulfonamide], for which the fold induction at 30 µM reads like this: under setting [1], 1.1; under setting [2], 1.2.
Regarding `O=C(O)CCNS(=O)(=O)c1cccc(S(=O)(=O)c2ccccc2)c1` [Example 202, N-{[3-(phenylsulfonyl)phenyl]sulfonyl)-beta-alanine], the fold induction at 30 µM was determined as 1.1 under setting [1] and 1.2 under setting [2].
With `Cc1ccc(S(=O)(=O)c2ccccc2)cc1S(=O)(=O)NCCC(N)=O` [Example 203, N^3-{[2-methyl-5-(phenylsulfonyl)phenyl]sulfonyl}-beta-alaninamide], the fold induction at 15 µM is 2.5 under setting [3] and 1.3 under setting [4].
For the molecule `Cc1ccc(S(=O)(=O)c2ccccc2)cc1S(=O)(=O)NCCCN1CCOCC1` [Example 206, 2-methyl-N-(3-morpholin-4-ylpropyl)-5-(phenylsulfonyl)benzenesulfonamide], the fold induction at 15 µM is, setting by setting: under setting [3], 2.2; under setting [4], 0.5.
The like results for `Cc1ccc(S(=O)(=O)c2ccccc2)cc1S(=O)(=O)NCCC1CCCN1C` (stereo not shown) [Example 207, 2-methyl-N-[2-(1-methylpyrrolidin-2-yl)ethyl]-5-(phenylsulfonyl)benzenesulfonamide] were, in that order, 2.3 and 1.1.
As to `Cc1ccc(S(=O)(=O)c2ccccc2)cc1S(=O)(=O)NCCc1ccncc1` [Example 208, 2-methyl-5-(phenylsulfonyl)-N-(2-pyridin-4-ylethyl)benzenesulfonamide], the fold induction at 15 µM was determined as 2.6 under setting [3] and 0.9 under setting [4].
Regarding `Cc1ccc(S(=O)(=O)c2ccccc2)cc1S(=O)(=O)NCCN1CCCCC1` [Example 209, 2-methyl-5-(phenylsulfonyl)-N-(2-piperidin-1-ylethyl)benzenesulfonamide], the fold induction at 15 µM was 2.2 under setting [3] and 1.3 under setting [4].
For `Cc1ccc(S(=O)(=O)c2ccccc2)cc1S(=O)(=O)NCCc1c[nH]cn1` [Example 210, N-[2-(1H-imidazol-4-yl)ethyl]-2-methyl-5-(phenylsulfonyl)benzenesulfonamide], the fold induction at 15 µM is 2.5 under setting [3] and 1 under setting [4].
With `Cc1ccc(S(=O)(=O)c2ccccc2)cc1S(=O)(=O)NCCN1CCOCC1` [Example 211, 2-methyl-N-(2-morpholin-4-ylethyl)-5-(phenylsulfonyl)benzenesulfonamide], the fold induction at 15 µM under setting [3] was found to be 2.3 and the fold induction at 15 µM under setting [4] was found to be 0.7.
For the molecule `Cc1ccc(S(=O)(=O)c2ccccc2)cc1S(=O)(=O)NCCCN1CCCC1=O` [Example 212, 2-methyl-N-[3-(2-oxopyrrolidin-1-yl)propyl]-5-(phenylsulfonyl)benzenesulfonamide], the fold induction at 15 µM reads like this: under setting [3], 2; under setting [4], 0.9.
Turning to `CCN(CC)CCNS(=O)(=O)c1cc(S(=O)(=O)c2ccccc2)ccc1C` [Example 213, N-[2-(diethylamino)ethyl]-2-methyl-5-(phenylsulfonyl)benzenesulfonamide], the fold induction at 15 µM under setting [3] came out at 1.8 and the fold induction at 15 µM under setting [4] amounted to 1.3.
The matching figures for `Cc1ccc(S(=O)(=O)c2ccccc2)cc1S(=O)(=O)NCCN(C)C` [Example 214, N-[2-(dimethylamino)ethyl]-2-methyl-5-(phenylsulfonyl)benzenesulfonamide]: 3.2 and 1.5.
The matching figures for `COCCCNS(=O)(=O)c1cc(S(=O)(=O)c2ccccc2)ccc1C` [Example 215, N-(3-methoxypropyl)-2-methyl-5-(phenylsulfonyl)benzenesulfonamide]: 2.9 and 1.
The matching figures for `Cc1ccc(S(=O)(=O)c2ccccc2)cc1S(=O)(=O)NCCCN(C)C` [Example 216, N-[3-(dimethylamino)propyl]-2-methyl-5-(phenylsulfonyl)benzenesulfonamide]: 3.6 and 1.3.
Consider `COCCNS(=O)(=O)c1cc(S(=O)(=O)c2ccccc2)ccc1C` [Example 217, N-(2-methoxyethyl)-2-methyl-5-(phenylsulfonyl)benzenesulfonamide], for which the fold induction at 15 µM turned out to be 2.5 under setting [3] and 1 under setting [4].
For `CCN(CC)CCCNS(=O)(=O)c1cc(S(=O)(=O)c2ccccc2)ccc1C` [Example 218, N-[3-(diethylamino)propyl]-2-methyl-5-(phenylsulfonyl)benzenesulfonamide], the fold induction at 15 µM came to 2.2 under setting [3] and 1.2 under setting [4].
On to `Cc1ccc(S(=O)(=O)c2ccccc2)cc1S(=O)(=O)NCCCN1CCCC1` [Example 220, 2-methyl-5-(phenylsulfonyl)-N-(3-pyrrolidin-1-ylpropyl)benzenesulfonamide], for which the fold induction at 15 µM reads like this: under setting [3], 3.6; under setting [4], 1.8.
On to `Cc1ccc(S(=O)(=O)c2ccccc2)cc1S(=O)(=O)NCCCN1CCN(C)CC1` [Example 221, 2-methyl-N-[3-(4-methylpiperazin-1-yl)propyl]-5-(phenylsulfonyl)benzenesulfonamide], for which the fold induction at 15 µM reads like this: under setting [3], 3; under setting [4], 1.2.
With `CCc1ccc(S(=O)(=O)c2ccccc2)cc1S(=O)(=O)NCCC(=O)OC` [Example 222, methyl N-{[2-ethyl-5-(phenylsulfonyl)phenyl]sulfonyl}-beta-alaninate], the fold induction at 15 µM was found to be 2.4 under setting [3] and 0.9 under setting [4].
For the molecule `CCc1ccc(S(=O)(=O)c2ccccc2)cc1S(=O)(=O)NCCc1c[nH]cn1` [Example 225, 2-ethyl-N-[2-(1H-imidazol-4-yl)ethyl]-5-(phenylsulfonyl)benzenesulfonamide], the fold induction at 15 µM under setting [3] is 3.1 and the fold induction at 15 µM under setting [4] was 0.9.
In the case of `CCc1ccc(S(=O)(=O)c2ccccc2)cc1S(=O)(=O)NCCOC` [Example 229, 2-ethyl-N-(2-methoxyethyl)-5-(phenylsulfonyl)benzenesulfonamide], the fold induction at 15 µM under setting [3] came out at 2.6 and the fold induction at 15 µM under setting [4] is 0.8.
Consider `CCc1ccc(S(=O)(=O)c2ccccc2)cc1S(=O)(=O)NCCCN1CCCC1` [Example 232, 2-ethyl-5-(phenylsulfonyl)-N-(3-pyrrolidin-1-ylpropyl)benzenesulfonamide], for which the fold induction at 15 µM was determined as 4.2 under setting [3] and 1.6 under setting [4].
In the case of `COC(=O)CCNS(=O)(=O)c1cc(S(=O)(=O)c2ccccc2)ccc1OC` [Example 233, methyl N-{[2-methoxy-5-(phenylsulfonyl)phenyl]sulfonyl}-beta-alaninate], the fold induction at 15 µM under setting [3] stood at 1.5 and the fold induction at 15 µM under setting [4] was determined as 1.
`COc1ccc(S(=O)(=O)c2ccccc2)cc1S(=O)(=O)NCCc1ccccn1` [Example 234, 2-methoxy-5-(phenylsulfonyl)-N-(2-pyridin-2-ylethyl)benzenesulfonamide]: the fold induction at 15 µM reads like this: under setting [3], 1.2; under setting [4], 1.
With `COc1ccc(S(=O)(=O)c2ccccc2)cc1S(=O)(=O)NCCc1ccncc1` [Example 235, 2-methoxy-5-(phenylsulfonyl)-N-(2-pyridin-4-ylethyl)benzenesulfonamide], the fold induction at 15 µM was determined as 1.2 under setting [3] and 0.9 under setting [4].

For the origin of these results see patent publication US20060276464A1, “Diarylsulfone sulfonamides and use thereof” (Wyeth, priority 2005, published 2006).
